CCCCOC(=O)c1ccc(O)cc1
solubility (mole fraction)
Conditions | 281.05 K | 291.05 K | 301.05 K | 311.05 K | 321.05 K
in acetonitrile | 0.275 | 0.449 | 0.61 | 0.753 | 0.857
in ethyl acetate | 0.424 | 0.501 | 0.591 | 0.688 | 0.781

From BigSolDB 2.1
